Data from patent US20250243171A1, “QUINAZOLINE COMPOUNDS FOR TREATMENT OF DISEASE” (Arthrosi Therapeutics, Inc., priority 2021, published 2025).

Columns and labels:
Experiment in all cases: EC50 assay: Ba/F3 stable cell proliferation (CCK-8, 72 h)
Assay type in all cases: cell-based
Ba/F3 stable cells [1] = target: T1, Ba/F3 stable cells (Homo sapiens, UniProt P00533, DUP767-769, cells depend on it); settings: Ba/F3-EGFR V769-D770insASV cells
T1 construct: EC50 Ba/F3-EGFR V769-D770insASV; other: Ba/F3-EGFR V769-D770insASV cells, 72 h, CCK-8
Procedure: (§1) 4,000 Ba/F3 stable cells/90 μL/well were plated onto 96-well cell culture plate (Grenier, Cat.No. 655180) and incubated at 37° C. with a humidified atmosphere of 5% CO2 for 2 h. Then the cells were treated with 10 μL compounds at serial titration. The final DMSO concentration is 0.1%. The cells treated with 0.1% DMSO (Vetec, Cat.No.V900090) as a positive control (Max), and medium with 0.1% DMSO was as a negative control (Min). Incubated the cells at 37° C. for 72 h. 10 μL the cell proliferation reagent CCK-8 (Dojindo, Cat.No. CK04 1000T) was added into each well and incubated the plate at 37° C. for 4 hours, the GD value was measured by SPECTRAmax plus (Molecular Devices) at 450 nm. Data processing with Graphpad 7.0.

Ba/F3 stable cells [2] = target: T2, Ba/F3 stable cells (Homo sapiens, UniProt P00533, DUP768-770, cells depend on it); settings: Ba/F3-EGFR D770-N771insSVD cells
T2 construct: EC50 Ba/F3-EGFR D770-N771insSVD; other: Ba/F3-EGFR D770-N771insSVD cells, 72 h, CCK-8
Procedure: as §1

Ba/F3 stable cells [3] = target: T3, Ba/F3 stable cells (Homo sapiens, UniProt P00533, DUP771-773, cells depend on it); settings: Ba/F3-EGFR H773-V774insNPH cells
T3 construct: EC50 Ba/F3-EGFR H773-V774insNPH; other: Ba/F3-EGFR H773-V774insNPH cells, 72 h, CCK-8
Procedure: as §1

Ba/F3 stable cells [4] = target: T4, Ba/F3 stable cells (Homo sapiens, UniProt P00533, INS763FQEA, cells depend on it); settings: Ba/F3-EGFR A763-Y764insFQEA cells
T4 construct: EC50 Ba/F3-EGFR A763-Y764insFQEA; other: Ba/F3-EGFR A763-Y764insFQEA cells, 72 h, CCK-8
Procedure: as §1

Ba/F3 stable cells [5] = target: T5, Ba/F3 stable cells (Homo sapiens, UniProt P00533, T790M/L858R, cells depend on it); settings: Ba/F3-EGFR L858R-T790M cells
T5 construct: EC50 Ba/F3-EGFR L858R-T790M; other: Ba/F3-EGFR L858R-T790M cells, 72 h, CCK-8
Procedure: as §1

Ba/F3 stable cells [6] = target: T6, Ba/F3 stable cells (Homo sapiens, UniProt P04626, DUP772-775, cells depend on it); settings: Ba/F3-HER2 A775-G776insYVMA cells
T6 construct: EC50 Ba/F3-HER2 A775-G776insYVMA; other: Ba/F3-HER2 A775-G776insYVMA cells, 72 h, CCK-8
Procedure: as §1

T1 sequence (P00533 with tags, fused parts or gaps DUP767-769): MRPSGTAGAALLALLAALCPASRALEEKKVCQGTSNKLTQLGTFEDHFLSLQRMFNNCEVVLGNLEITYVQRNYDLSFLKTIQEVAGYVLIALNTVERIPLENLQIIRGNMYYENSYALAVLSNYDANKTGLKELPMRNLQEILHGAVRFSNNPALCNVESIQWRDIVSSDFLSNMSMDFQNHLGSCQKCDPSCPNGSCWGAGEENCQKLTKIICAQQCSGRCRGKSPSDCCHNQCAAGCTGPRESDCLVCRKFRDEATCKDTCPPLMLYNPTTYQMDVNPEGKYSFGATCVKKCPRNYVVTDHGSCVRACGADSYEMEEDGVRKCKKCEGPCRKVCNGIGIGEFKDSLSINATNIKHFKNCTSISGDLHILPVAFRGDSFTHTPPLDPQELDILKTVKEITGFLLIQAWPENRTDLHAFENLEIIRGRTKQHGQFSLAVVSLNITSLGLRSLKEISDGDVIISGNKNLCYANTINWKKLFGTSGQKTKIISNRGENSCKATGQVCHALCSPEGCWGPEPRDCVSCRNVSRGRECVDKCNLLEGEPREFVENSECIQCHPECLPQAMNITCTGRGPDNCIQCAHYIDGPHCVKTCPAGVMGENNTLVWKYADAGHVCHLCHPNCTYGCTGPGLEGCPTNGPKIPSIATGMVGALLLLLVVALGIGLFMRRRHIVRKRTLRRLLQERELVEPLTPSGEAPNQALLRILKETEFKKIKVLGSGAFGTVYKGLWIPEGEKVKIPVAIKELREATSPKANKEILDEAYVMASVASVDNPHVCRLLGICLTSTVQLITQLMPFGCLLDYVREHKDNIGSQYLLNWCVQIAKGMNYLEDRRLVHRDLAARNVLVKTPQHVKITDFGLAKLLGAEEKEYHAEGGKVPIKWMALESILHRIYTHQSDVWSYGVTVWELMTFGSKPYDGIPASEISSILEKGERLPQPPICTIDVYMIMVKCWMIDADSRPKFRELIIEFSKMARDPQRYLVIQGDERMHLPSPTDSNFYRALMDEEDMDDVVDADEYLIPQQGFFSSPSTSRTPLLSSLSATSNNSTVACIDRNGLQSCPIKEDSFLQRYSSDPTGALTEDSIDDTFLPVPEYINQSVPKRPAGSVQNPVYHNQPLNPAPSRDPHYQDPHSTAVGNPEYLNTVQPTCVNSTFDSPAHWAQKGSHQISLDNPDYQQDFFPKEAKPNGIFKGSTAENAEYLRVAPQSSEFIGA
T6 sequence (P04626 with tags, fused parts or gaps DUP772-775): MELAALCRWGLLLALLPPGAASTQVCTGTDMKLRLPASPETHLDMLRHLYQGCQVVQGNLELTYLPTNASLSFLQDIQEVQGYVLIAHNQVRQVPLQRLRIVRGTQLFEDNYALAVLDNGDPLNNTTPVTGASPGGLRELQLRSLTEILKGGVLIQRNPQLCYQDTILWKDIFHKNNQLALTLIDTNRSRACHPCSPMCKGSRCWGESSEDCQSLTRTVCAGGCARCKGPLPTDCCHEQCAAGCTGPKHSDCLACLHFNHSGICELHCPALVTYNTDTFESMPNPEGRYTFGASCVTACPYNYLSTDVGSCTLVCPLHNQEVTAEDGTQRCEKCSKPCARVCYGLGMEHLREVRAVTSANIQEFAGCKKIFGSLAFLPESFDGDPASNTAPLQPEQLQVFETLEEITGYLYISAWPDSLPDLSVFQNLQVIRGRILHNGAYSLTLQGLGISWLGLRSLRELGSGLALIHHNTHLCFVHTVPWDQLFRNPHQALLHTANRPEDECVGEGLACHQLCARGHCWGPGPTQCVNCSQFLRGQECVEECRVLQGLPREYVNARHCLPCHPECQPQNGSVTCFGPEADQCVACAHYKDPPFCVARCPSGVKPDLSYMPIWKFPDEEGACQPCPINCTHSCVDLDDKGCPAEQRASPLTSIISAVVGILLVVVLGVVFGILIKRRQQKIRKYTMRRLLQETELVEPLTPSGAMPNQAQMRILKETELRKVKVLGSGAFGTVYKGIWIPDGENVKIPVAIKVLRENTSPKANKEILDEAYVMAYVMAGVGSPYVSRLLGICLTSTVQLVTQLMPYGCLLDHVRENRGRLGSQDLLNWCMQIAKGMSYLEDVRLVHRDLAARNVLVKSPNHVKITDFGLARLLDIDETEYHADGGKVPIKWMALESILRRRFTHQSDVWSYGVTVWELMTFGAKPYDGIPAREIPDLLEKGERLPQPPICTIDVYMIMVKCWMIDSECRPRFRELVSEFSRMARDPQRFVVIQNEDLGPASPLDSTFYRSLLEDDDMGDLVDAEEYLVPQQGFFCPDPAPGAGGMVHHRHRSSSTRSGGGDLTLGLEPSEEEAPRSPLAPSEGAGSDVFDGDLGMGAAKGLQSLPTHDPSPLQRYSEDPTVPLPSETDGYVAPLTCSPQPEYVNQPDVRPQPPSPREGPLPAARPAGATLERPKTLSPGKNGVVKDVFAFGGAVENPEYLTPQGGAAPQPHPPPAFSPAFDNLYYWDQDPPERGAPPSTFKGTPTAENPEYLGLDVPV
T3 sequence (P00533 with tags, fused parts or gaps DUP771-773): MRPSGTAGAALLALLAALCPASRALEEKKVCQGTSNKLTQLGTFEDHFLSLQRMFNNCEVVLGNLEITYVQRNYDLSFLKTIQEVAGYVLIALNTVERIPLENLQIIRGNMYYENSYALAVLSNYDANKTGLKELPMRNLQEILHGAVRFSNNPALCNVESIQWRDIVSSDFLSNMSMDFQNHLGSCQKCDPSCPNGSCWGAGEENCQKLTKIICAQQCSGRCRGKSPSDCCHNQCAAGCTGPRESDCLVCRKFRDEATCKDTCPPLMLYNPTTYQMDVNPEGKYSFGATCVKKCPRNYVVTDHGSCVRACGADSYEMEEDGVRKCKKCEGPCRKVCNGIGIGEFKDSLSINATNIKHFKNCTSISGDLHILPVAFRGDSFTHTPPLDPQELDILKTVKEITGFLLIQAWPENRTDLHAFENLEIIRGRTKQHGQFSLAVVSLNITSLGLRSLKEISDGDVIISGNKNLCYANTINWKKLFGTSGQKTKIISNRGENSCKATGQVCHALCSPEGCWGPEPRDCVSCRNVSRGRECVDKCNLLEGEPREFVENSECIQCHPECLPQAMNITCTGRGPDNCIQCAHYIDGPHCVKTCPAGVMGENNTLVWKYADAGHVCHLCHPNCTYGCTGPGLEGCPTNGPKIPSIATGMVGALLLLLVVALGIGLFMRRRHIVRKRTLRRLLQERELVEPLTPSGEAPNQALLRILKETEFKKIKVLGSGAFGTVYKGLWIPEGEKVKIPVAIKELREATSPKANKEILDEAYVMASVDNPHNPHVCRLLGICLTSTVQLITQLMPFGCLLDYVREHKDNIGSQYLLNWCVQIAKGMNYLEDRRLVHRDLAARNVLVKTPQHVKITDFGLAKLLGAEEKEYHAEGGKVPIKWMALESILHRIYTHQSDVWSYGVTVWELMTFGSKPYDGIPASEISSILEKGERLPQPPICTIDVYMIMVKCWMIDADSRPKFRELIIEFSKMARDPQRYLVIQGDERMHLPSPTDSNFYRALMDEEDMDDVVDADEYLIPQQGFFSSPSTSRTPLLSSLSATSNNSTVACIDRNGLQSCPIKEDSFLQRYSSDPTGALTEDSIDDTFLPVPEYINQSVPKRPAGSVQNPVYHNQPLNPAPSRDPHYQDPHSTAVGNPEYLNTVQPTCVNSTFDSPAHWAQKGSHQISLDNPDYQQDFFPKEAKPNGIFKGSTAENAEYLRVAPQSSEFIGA
T5 sequence (P00533 whole entry T790M/L858R): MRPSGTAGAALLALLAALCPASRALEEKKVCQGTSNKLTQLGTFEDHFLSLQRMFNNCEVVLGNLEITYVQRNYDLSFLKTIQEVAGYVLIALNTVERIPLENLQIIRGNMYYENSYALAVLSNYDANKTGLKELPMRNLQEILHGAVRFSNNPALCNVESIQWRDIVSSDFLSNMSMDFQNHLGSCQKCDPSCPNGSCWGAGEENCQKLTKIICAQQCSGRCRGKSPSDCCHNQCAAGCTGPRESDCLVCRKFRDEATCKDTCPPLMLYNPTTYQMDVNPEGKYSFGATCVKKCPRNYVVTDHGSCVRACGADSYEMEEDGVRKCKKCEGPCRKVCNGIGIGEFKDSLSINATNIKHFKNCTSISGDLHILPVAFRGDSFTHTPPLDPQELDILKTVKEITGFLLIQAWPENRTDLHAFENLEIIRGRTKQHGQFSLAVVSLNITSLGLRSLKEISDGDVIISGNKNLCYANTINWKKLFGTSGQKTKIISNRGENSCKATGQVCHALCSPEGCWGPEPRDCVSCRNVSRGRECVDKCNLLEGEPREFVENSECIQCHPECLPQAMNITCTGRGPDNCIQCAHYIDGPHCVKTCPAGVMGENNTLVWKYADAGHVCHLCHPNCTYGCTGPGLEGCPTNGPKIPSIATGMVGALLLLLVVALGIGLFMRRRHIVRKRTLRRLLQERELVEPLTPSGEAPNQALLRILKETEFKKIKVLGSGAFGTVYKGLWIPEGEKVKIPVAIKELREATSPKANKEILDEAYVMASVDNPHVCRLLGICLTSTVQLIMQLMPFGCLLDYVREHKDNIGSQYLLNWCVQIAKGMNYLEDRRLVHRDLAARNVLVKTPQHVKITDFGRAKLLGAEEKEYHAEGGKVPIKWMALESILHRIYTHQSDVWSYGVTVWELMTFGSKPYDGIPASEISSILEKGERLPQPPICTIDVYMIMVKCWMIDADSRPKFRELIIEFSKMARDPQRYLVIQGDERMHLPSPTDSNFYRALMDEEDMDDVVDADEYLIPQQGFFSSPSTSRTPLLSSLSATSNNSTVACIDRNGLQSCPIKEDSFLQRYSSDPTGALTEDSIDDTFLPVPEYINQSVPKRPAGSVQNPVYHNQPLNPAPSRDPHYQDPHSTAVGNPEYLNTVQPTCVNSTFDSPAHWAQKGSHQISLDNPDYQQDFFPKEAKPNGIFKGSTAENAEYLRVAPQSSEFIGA

Structure (SMILES)	EC50 (Ba/F3 stable cells [1])	EC50 (Ba/F3 stable cells [2])	EC50 (Ba/F3 stable cells [3])	EC50 (Ba/F3 stable cells [4])	EC50 (Ba/F3 stable cells [5])	EC50 (Ba/F3 stable cells [6])
C=CC(=O)N1CC(c2cc3c(Nc4ccc(Cl)c(Cl)c4F)ncnc3cc2OC)C1 [Compound 1, 1-(3-(4-((3,4-dichloro-2-fluorophenyl)amino)-7-methoxyquinazolin-6-yl)azetidin-1-yl)prop-2-en-1-one]	≤ 200 nM	≤ 200 nM	≤ 200 nM	≤ 200 nM	≤ 200 nM	≤ 200 nM
C=CC(=O)N1CC(c2cc3c(Nc4ccc(OCc5ccccc5)c(Cl)c4F)ncnc3cc2OC)C1 [Compound 2, 1-(3-(4-((4-(benzyloxy)-3-chloro-2-fluorophenyl)amino)-7-methoxyquinazolin-6-yl)azetidin-1-yl)prop-2-en-1-one]	> 1000 nM	> 1000 nM	> 1000 nM	> 1000 nM	> 1000 nM	> 1000 nM
C=CC(=O)N1CCC(c2cc3c(Nc4ccc(Cl)c(Cl)c4F)ncnc3cc2OC)C1 (centres unmarked) [Compound 3, 1-(3-(4-((3,4-dichloro-2-fluorophenyl)amino)-7-methoxyquinazolin-6-yl)pyrrolidin-1-yl)prop-2-en-1-one]	≤ 200 nM	≤ 200 nM	≤ 200 nM	≤ 200 nM	200 to 1000 nM	≤ 200 nM
C=CC(=O)N1CC(c2cc3c(Nc4cccc5ccccc45)ncnc3cc2OC)C1 [Compound 4, 1-(3-(7-methoxy-4-(naphthalen-1-ylamino)quinazolin-6-yl)azetidin-1-yl)prop-2-en-1-one]	≤ 200 nM	200 to 1000 nM	≤ 200 nM	≤ 200 nM	200 to 1000 nM	≤ 200 nM
C=CC(=O)N1CC(c2cc3c(Nc4ccc5ccccc5c4)ncnc3cc2OC)C1 [Compound 5, 1-(3-(7-methoxy-4-(naphthalen-2-ylamino)quinazolin-6-yl)azetidin-1-yl)prop-2-en-1-one]	≤ 200 nM	200 to 1000 nM	200 to 1000 nM	≤ 200 nM	200 to 1000 nM	200 to 1000 nM
C=CC(=O)N1CC(c2cc3c(Nc4ccc(F)c(Cl)c4)ncnc3cc2OC)C1 [Compound 6, 1-(3-(4-((3-chloro-4-fluorophenyl)amino)-7-methoxyquinazolin-6-yl)azetidin-1-yl)prop-2-en-1-one]	≤ 200 nM	200 to 1000 nM	≤ 200 nM	≤ 200 nM	200 to 1000 nM	≤ 200 nM
C=CC(=O)N1CC(c2cc3c(Nc4ccc(Cl)c5ccccc45)ncnc3cc2OC)C1 [Compound 7, 1-(3-(4-((4-chloronaphthalen-1-yl)amino)-7-methoxyquinazolin-6-yl)azetidin-1-yl)prop-2-en-1-one]	200 to 1000 nM	> 1000 nM	200 to 1000 nM	≤ 200 nM	≤ 200 nM	> 1000 nM
C=CC(=O)N1CC(c2ccc3ncnc(Nc4ccc(Cl)c(Cl)c4F)c3c2)C1 [Compound 8, 1-(3-(4-((3,4-dichloro-2-fluorophenyl)amino)quinazolin-6-yl)azetidin-1-yl)prop-2-en-1-one]	200 to 1000 nM	200 to 1000 nM	200 to 1000 nM	≤ 200 nM	> 1000 nM	200 to 1000 nM
C=CC(=O)N1CCC(c2ccc3ncnc(Nc4ccc(Cl)c(Cl)c4F)c3c2)CC1 [Compound 9, 1-(4-(4-((3,4-dichloro-2-fluorophenyl)amino)quinazolin-6-yl)piperidin-1-yl)prop-2-en-1-one]	> 1000 nM	> 1000 nM	> 1000 nM	≤ 200 nM	> 1000 nM	200 to 1000 nM
C=CC(=O)N1CCC(c2cc3c(Nc4ccc(Cl)c(Cl)c4F)ncnc3cc2OC)CC1 [Compound 10, 1-(4-(4-((3,4-dichloro-2-fluorophenyl)amino)-7-methoxyquinazolin-6-yl)piperidin-1-yl)prop-2-en-1-one]	≤ 200 nM	200 to 1000 nM	200 to 1000 nM	≤ 200 nM	> 1000 nM	200 to 1000 nM
C=CC(=O)N1CC(c2cc3c(Nc4ccc5[nH]ccc5c4)ncnc3cc2OC)C1 [Compound 11, 1-(3-(4-((1H-indol-5-yl)amino)-7-methoxyquinazolin-6-yl)azetidin-1-yl)prop-2-en-1-one]	≤ 200 nM	200 to 1000 nM	≤ 200 nM	≤ 200 nM	> 1000 nM	200 to 1000 nM
C=CC(=O)N1CC(c2cc3c(Nc4ccc5c(c4)CCN5)ncnc3cc2OC)C1 [Compound 12, 1-(3-(4-(indolin-5-ylamino)-7-methoxyquinazolin-6-yl)azetidin-1-yl)prop-2-en-1-one]	> 1000 nM	> 1000 nM	> 1000 nM	> 1000 nM	> 1000 nM	> 1000 nM
C=CC(=O)N1CC(c2cc3c(NCc4ccc(F)cc4)ncnc3cc2OC)C1 [Compound 13, 1-(3-(4-((4-fluorobenzyl)amino)-7-methoxyquinazolin-6-yl)azetidin-1-yl)prop-2-en-1-one]	200 to 1000 nM	> 1000 nM	200 to 1000 nM	≤ 200 nM	> 1000 nM	> 1000 nM
C=CC(=O)N1CC(c2cc3c(Nc4ccc(F)c5ccccc45)ncnc3cc2OC)C1 [Compound 14, 1-(3-(4-((4-fluoronaphthalen-1-yl)amino)-7-methoxyquinazolin-6-yl)azetidin-1-yl)prop-2-en-1-one]	≤ 200 nM	> 1000 nM	≤ 200 nM	≤ 200 nM	≤ 200 nM	> 1000 nM
C=CC(=O)N1CC(c2cc3c(NCc4cccc(Cl)c4)ncnc3cc2OC)C1 [Compound 15, 1-(3-(4-((3-chlorobenzyl)amino)-7-methoxyquinazolin-6-yl)azetidin-1-yl)prop-2-en-1-one]	≤ 200 nM	200 to 1000 nM	200 to 1000 nM	≤ 200 nM	200 to 1000 nM	> 1000 nM
C=CC(=O)N1CC(c2cc3c(Nc4ccc(F)c(Cl)c4F)ncnc3cc2OC)C1 [Compound 16, 1-(3-(4-((3-chloro-2,4-difluorophenyl)amino)-7-methoxyquinazolin-6-yl)azetidin-1-yl)prop-2-en-1-one]	≤ 200 nM	≤ 200 nM	≤ 200 nM	≤ 200 nM	≤ 200 nM	≤ 200 nM
C=CC(=O)N1CC(c2cc3c(Nc4ccc(Cl)c(Cl)c4F)ncnc3cc2OCCOC)C1 [Compound 17, 1-(3-(4-((3,4-dichloro-2-fluorophenyl)amino)-7-(2-methoxyethoxy)quinazolin-6-yl)azetidin-1-yl)prop-2-en-1-one]	≤ 200 nM	≤ 200 nM	≤ 200 nM	≤ 200 nM	≤ 200 nM	≤ 200 nM
C=CC(=O)N1CC(c2cc3c(Nc4ccc(Cl)c(Cl)c4F)ncnc3cc2O[C@H]2CCOC2)C1 [Compound 24, (S)-1-(3-(4-((3,4-dichloro-2-fluorophenyl)amino)-7-((tetrahydrofuran-3-yl)oxy)quinazolin-6-yl)azetidin-1-yl)prop-2-en-1-one]				200 to 1000 nM		
C=CC(=O)N1CCC(Oc2cc3c(Nc4ccc(Cl)c(Cl)c4F)ncnc3cc2OC)CC1 [Compound 133, 1-(4-((4-((3,4-dichloro-2-fluorophenyl)amino)-7-methoxyquinazolin-6-yl)oxy)piperidin-1-yl)prop-2-en-1-one]						≤ 200 nM
